Values quoted from earlier work, collected in patent US20090246278A1, “USE OF ESSENTIAL OILS TO REDUCE BENZODIAZEPINE REQUIREMENTS DURING MEDICAL PROCEDURES” (priority 2008, published 2009).

Tested on: GABA receptors
Conditions: effects antagonized by flumazenil

CC1=CCC2CC1C2(C)C (stereo not drawn) [α-pinene, alpha-pinene]
GABA-ergic properties: exert GABA-ergic properties

C=C1CCC2CC1C2(C)C (stereo not drawn) [β-pinene, beta-pinene]
GABA-ergic properties: exert GABA-ergic properties
